From ChEMBL document CHEMBL1157113, “Insulin-like growth factor-1 receptor (IGF-1R) kinase inhibitors: SAR of a series of 3-[6-(4-substituted-piperazin-1-yl)-4-methyl-1H-benzimidazol-2-yl]-1H-pyridine-2-one” (Bioorg Med Chem Lett, 2010) come the findings set out here.

Common to all, as to assay type: ADME, organism-based
Data set [1] can be described thus: AUC (0 to 4 hrs) in mouse at 20 mg/kg. The following applies: plasma. The arrangement: time < 4 hr, dose 20 mg/kg.
Data set [2] in a line: Half life in rat at 5 mg/kg, iv and 75 mg/kg, po. Particulars: in vivo.
Data set [3] is described as follows: Volume of distribution at steady state in rat at 5 mg/kg, iv and 75 mg/kg, po. Particulars: in vivo, read-out: Vdss.
Data set [4] is described as follows: Oral bioavailability in rat at 75 mg/kg. The following applies: in vivo.
Data set [5] in a line: Oral bioavailability in mouse at 75 mg/kg. Particulars: in vivo.
Data set [6] can be described thus: Half life in mouse at 5 mg/kg, iv and 75 mg/kg, po. Particulars: in vivo.
Data set [7] is described as follows: Total clearance in mouse at 5 mg/kg, iv and 75 mg/kg, po. Particulars: in vivo.
The nature of data set [8]: Total clearance in rat at 5 mg/kg, iv and 75 mg/kg, po. The following applies: in vivo.
Data set [9] is described as follows: Volume of distribution at steady state in mouse at 5 mg/kg, iv and 75 mg/kg, po. Particulars: in vivo, read-out: Vdss.

On to `Cc1cc(N2CCN(CCF)CC2)cc2[nH]c(-c3c(NC[C@@H](O)c4cccc(Cl)c4)cc[nH]c3=O)nc12`, for which the AUC(0-t) (usually exposure summed from dosing to a finite time, without extrapolation to infinity) at 4 h in data set [1] was found to be 17.7 µM·h.
Same read-out and setting: to `CCOC(=O)N1CCN(c2cc(C)c3nc(-c4c(NC[C@@H](O)c5cccc(Cl)c5)cc[nH]c4=O)[nH]c3c2)CC1` belongs 25.3 µM·h; to `Cc1cc(N2CCN(CC(=O)NCCF)CC2)cc2[nH]c(-c3c(NC[C@@H](O)c4cccc(Cl)c4)cc[nH]c3=O)nc12`, 1.4 µM·h.
Take `COCCN1CCN(c2cc(C)c3nc(-c4c(NC[C@@H](O)c5cccc(Cl)c5)cc[nH]c4=O)[nH]c3c2)CC1`: the half-life (commonly the time in which the quantity being followed falls by half) in [2] was 1.9 h; in [6] it was 2.9 h. The Vd amounted to 2.9 L/kg in [3] and 4.9 L/kg in data set [9]. The bioavailability in data set [4] and in data set [5] was 26% each time. In data set [1], this molecule registered an AUC(0-t) at 4 h of 11.1 µM·h. For the same molecule, the results for the clearance in [7] and in [8] were 25.2 mL/min/kg and 27.8 mL/min/kg, respectively.
Molecule `COC(=O)N1CCN(c2cc(C)c3nc(-c4c(NC[C@@H](O)c5cccc(Cl)c5)cc[nH]c4=O)[nH]c3c2)CC1` had an AUC(0-t) at 4 h in data set [1] of 57.1 µM·h.
Same read-out and setting: in the case of `Cc1cc(N2CCOCC2)cc2[nH]c(-c3c(NC[C@@H](O)c4cccc(Cl)c4)cc[nH]c3=O)nc12` it was 50 µM·h; in that of `Cc1cc(N2CCN(C(=O)CCCF)CC2)cc2[nH]c(-c3c(NC[C@@H](O)c4cccc(Cl)c4)cc[nH]c3=O)nc12`, 4.5 µM·h.
Still for that read-out and setting: to `Cc1cc(N2CCN(CCC#N)CC2)cc2nc(-c3c(NC[C@@H](O)c4cccc(Cl)c4)cc[nH]c3=O)[nH]c12` belongs 22.1 µM·h.
`Cc1cc(N2CCNCC2)cc2[nH]c(-c3c(NC[C@@H](O)c4cccc(Cl)c4)cc[nH]c3=O)nc12` returned an AUC(0-t) at 4 h in [1] of 26.5 µM·h. The AUC(0-t) at 4 h values of the last two molecules are within 1.5-fold of each other.
Same read-out and setting: to `CCN1CCN(c2cc(C)c3nc(-c4c(NC[C@@H](O)c5cccc(Cl)c5)cc[nH]c4=O)[nH]c3c2)CC1` belongs 1 µM·h; to `Cc1cc(N2CCN(C(=O)OC(C)(C)C)CC2)cc2[nH]c(-c3c(NC[C@@H](O)c4cccc(Cl)c4)cc[nH]c3=O)nc12`, 8.3 µM·h; to `CC(=O)N1CCN(c2cc(C)c3nc(-c4c(NC[C@@H](O)c5cccc(Cl)c5)cc[nH]c4=O)[nH]c3c2)CC1`, 3.1 µM·h.
On the same count and under the same terms, in the case of `Cc1cc(N2CCN(CC#N)CC2)cc2[nH]c(-c3c(NC[C@@H](O)c4cccc(Cl)c4)cc[nH]c3=O)nc12` it was 10.3 µM·h; in that of `Cc1cc(N2CCN(S(C)(=O)=O)CC2)cc2[nH]c(-c3c(NC[C@@H](O)c4cccc(Cl)c4)cc[nH]c3=O)nc12`, 7.2 µM·h; in that of `Cc1cc(N2CCN(C)CC2)cc2[nH]c(-c3c(NC[C@@H](O)c4cccc(Cl)c4)cc[nH]c3=O)nc12`, 3.4 µM·h.
On the same count and under the same terms, in the case of `CNC(=O)CN1CCN(c2cc(C)c3nc(-c4c(NC[C@@H](O)c5cccc(Cl)c5)cc[nH]c4=O)[nH]c3c2)CC1` it was 1.6 µM·h.
Molecule `Cc1cc(N2CCN(CCCF)CC2)cc2[nH]c(-c3c(NC[C@@H](O)c4cccc(Cl)c4)cc[nH]c3=O)nc12` had an AUC(0-t) at 4 h in data set [1] of 11.4 µM·h.
